Several values for one entry are separate records, joined by “and”; a condition that tells them apart may be missing. Equal values may be shown once. Inconclusive results and toxic doses are left out. The calls were made as follows: active = survival T/C of 150% or more; inactive = T/C below 125% in these data.
Tested on: BDF1 mice, B16 melanoma ip, median survival T/C
Assay: NCI In Vivo Anticancer Drug Screen. Data for tumor model B16 Melanoma (intraperitoneal) in B6D2F1 (BDF1) mice
Settings: endpoint: median survival time, higher = longer survival
In short: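 Transplantable tumor model; survival or tumor size measured; reported as T/C, treated over vehicle control.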

[1] = dose: 50.0 mg/kg/injection, schedule: Q04DX003 (ip), vehicle: Klucel (hydroxypropylcellulose) (HPC)
[2] = dose: 100.0 mg/kg/injection, schedule: Q04DX003 (ip), vehicle: Klucel (hydroxypropylcellulose) (HPC)
[3] = dose: 6.25 mg/kg/injection, schedule: Q01DX009 (ip), vehicle: saline with Tween-80
[4] = dose: 12.5 mg/kg/injection, schedule: Q01DX009 (ip), vehicle: saline
[5] = dose: 25.0 mg/kg/injection, schedule: Q01DX009 (ip), vehicle: saline
[6] = dose: 50.0 mg/kg/injection, schedule: Q01DX009 (ip), vehicle: saline
[7] = dose: 100.0 mg/kg/injection, schedule: Q01DX009 (ip), vehicle: saline
[8] = dose: 50.0 mg/kg/injection, schedule: Q01DX009 (ip), vehicle: saline with Tween-80
[9] = dose: 100.0 mg/kg/injection, schedule: Q01DX009 (ip), vehicle: saline with Tween-80
[10] = dose: 200.0 mg/kg/injection, schedule: Q01DX009 (ip), vehicle: saline with Tween-80
[11] = dose: 12.5 mg/kg/injection, schedule: Q01DX009 (ip), vehicle: saline with Tween-80
[12] = dose: 25.0 mg/kg/injection, schedule: Q01DX009 (ip), vehicle: saline with Tween-80
[13] = dose: 400.0 mg/kg/injection, schedule: Q01DX009 (ip), vehicle: saline with Tween-80
[14] = dose: 12.5 mg/kg/injection, schedule: Q01DX009 (ip), vehicle: Klucel (hydroxypropylcellulose) (HPC)
[15] = dose: 25.0 mg/kg/injection, schedule: Q01DX009 (ip), vehicle: Klucel (hydroxypropylcellulose) (HPC)
[16] = dose: 50.0 mg/kg/injection, schedule: Q01DX009 (ip), vehicle: Klucel (hydroxypropylcellulose) (HPC)
[17] = dose: 100.0 mg/kg/injection, schedule: Q01DX009 (ip), vehicle: Klucel (hydroxypropylcellulose) (HPC)
[18] = dose: 200.0 mg/kg/injection, schedule: Q01DX009 (ip), vehicle: Klucel (hydroxypropylcellulose) (HPC)
[19] = dose: 200.0 mg/kg/injection, schedule: Q01DX009 (ip), vehicle: saline
[20] = dose: 200.0 mg/kg/injection, schedule: Q04DX003 (ip), vehicle: Klucel (hydroxypropylcellulose) (HPC)
[21] = dose: 400.0 mg/kg/injection, schedule: Q01DX009 (ip), vehicle: Klucel (hydroxypropylcellulose) (HPC)

Measured: T/C

c1ccc(C(=C2CCC2)c2c3ccccc3cc3ccccc23)cc1
inactive: dose: 25.0 mg/kg/injection, schedule: Q04DX003 (ip), vehicle: Klucel (hydroxypropylcellulose) (HPC) 102 % of control | [1] 91 % of control | [2] 105 % of control

S=C([S][Sn]([c]1ccccc1)([c]1ccccc1)[c]1ccccc1)N1CCOCC1
inactive: dose: 1.56 mg/kg/injection, schedule: Q01DX009 (ip), vehicle: saline with Tween-80 107 % of control | dose: 3.13 mg/kg/injection, schedule: Q01DX009 (ip), vehicle: saline with Tween-80 100 % of control | [3] 110 % of control

CN1CCN=C(c2ccccc2)c2cc(Cl)ccc21
inactive: dose: 6.25 mg/kg/injection, schedule: Q01DX009 (ip), vehicle: saline 117 % of control | [4] 117 % of control | [5] 115 % of control | [6] 106 % of control | [7] 100 % of control

Cc1cc(=O)c2c(=O)[nH][nH]c2[nH]1
inactive: [8] 100 % of control | [9] 95 % of control | [10] 88 % of control

CCC(=S)Nc1ccc(Cl)cc1
inactive: dose: 25.0 mg/kg/injection, schedule: Q01DX009 (ip), vehicle: carboxymethylcellulose (CMC) 100 % of control | dose: 50.0 mg/kg/injection, schedule: Q01DX009 (ip), vehicle: carboxymethylcellulose (CMC) 107 % of control | dose: 100.0 mg/kg/injection, schedule: Q01DX009 (ip), vehicle: carboxymethylcellulose (CMC) 103 % of control

C[Si](C)(C)O/C=C1\CCCCC1=O
inactive: [3] 96 % of control | [11] 99 % of control | [12] 92 % of control | [8] 94 % of control | [9] 88 % of control | [10] 94 % of control

c1cc[c]([Sn]([S][Sn]([c]2ccccc2)([c]2ccccc2)[c]2ccccc2)([c]2ccccc2)[c]2ccccc2)cc1
inactive: [8] 99 % of control | [9] 93 % of control | [10] 92 % of control | [13] 86 % of control

c1ccc(CC2NCCc3c2[nH]c2ccccc32)cc1 (centres undefined)
inactive: [14] 105 % of control | [15] 91 % of control and 95 % of control | [16] 86 % of control and 89 % of control | [17] 86 % of control | [18] 105 % of control

ClCC[N+]12CC[N+](CCCl)(CC1)C2
inactive: [11] 95 % of control and 100 % of control | [4] 112 % of control and 95 % of control | [12] 104 % of control | [5] 109 % of control and 105 % of control | [8] 110 % of control and 116 % of control | [6] 124 % of control and 101 % of control | [7] 101 % of control | [19] 100 % of control | dose: 400.0 mg/kg/injection, schedule: Q01DX009 (ip), vehicle: saline 107 % of control

c1ccc([P+](C[P+](c2ccccc2)(c2ccccc2)c2ccccc2)(c2ccccc2)c2ccccc2)cc1
inactive: dose: 0.75 mg/kg/injection, schedule: Q01DX009 (ip), vehicle: saline 87 % of control | dose: 1.5 mg/kg/injection, schedule: Q01DX009 (ip), vehicle: saline 93 % of control

CCCCCCCCCCCCCCCCCC(=O)NNCCO
inactive: [8] 86 % of control

Cc1ccc[n+](CCc2c[nH]c3ccccc23)c1
inactive: [11] 111 % of control | [12] 99 % of control | [8] 95 % of control

CC(=O)C(N=Nc1ccccc1)C(C)=O
inactive: [15] 100 % of control | [16] 113 % of control | [17] 113 % of control

O=C(Nc1ccccc1Cl)Oc1ccc(-c2ccccc2)cc1Br
inactive: [2] 100 % of control | [20] 103 % of control | dose: 400.0 mg/kg/injection, schedule: Q04DX003 (ip), vehicle: Klucel (hydroxypropylcellulose) (HPC) 93 % of control

CC1OC(OCc2ccc3c(c2)C(=O)c2ccccc2C3=O)CC(N)C1O (centres undefined)
inactive: dose: 1.56 mg/kg/injection, schedule: Q01DX009 (ip), vehicle: water 102 % of control | dose: 3.13 mg/kg/injection, schedule: Q01DX009 (ip), vehicle: water 93 % of control | dose: 6.25 mg/kg/injection, schedule: Q01DX009 (ip), vehicle: water 115 % of control | dose: 12.5 mg/kg/injection, schedule: Q01DX009 (ip), vehicle: water 115 % of control | dose: 50.0 mg/kg/injection, schedule: Q01DX009 (ip), vehicle: water 94 % of control

Clc1ccc(C=Nc2ccc3c(c2)Cc2ccccc2-3)cc1
inactive: [17] 93 % of control | [18] 93 % of control | [21] 96 % of control

CSCS(=O)C[C@H](CO)NC(=O)/C=C/c1c(C)[nH]c(=O)[nH]c1=O (some centres undefined)
inactive: dose: 0.06 mg/kg/injection, schedule: Q01DX009 (ip), vehicle: Klucel (hydroxypropylcellulose) (HPC) 95 % of control | dose: 0.08 mg/kg/injection, schedule: Q01DX009 (ip), vehicle: water 99 % of control | dose: 0.15 mg/kg/injection, schedule: Q01DX009 (ip), vehicle: water 105 % of control | dose: 0.3 mg/kg/injection, schedule: Q01DX009 (ip), vehicle: water 108 % of control | dose: 0.6 mg/kg/injection, schedule: Q01DX009 (ip), vehicle: water 91 % of control | dose: 0.98 mg/kg/injection, schedule: Q04DX003 (ip), vehicle: saline 94 % of control | dose: 1.4 mg/kg/injection, schedule: Q04DX003 (ip), vehicle: saline 113 % of control | dose: 2.0 mg/kg/injection, schedule: Q04DX003 (ip), vehicle: saline 101 % of control

COc1ccc(OC(=O)Nc2ccccc2OC)cc1
inactive: [17] 100 % of control | [18] 93 % of control | [21] 93 % of control

COc1cc(C(=O)CC(O)(C(F)(F)F)C(F)(F)F)cc(OC)c1OC
inactive: [1] 100 % of control | [2] 110 % of control | [20] 97 % of control

CC(C)(C)NC(=O)CCC(CC(=O)NC(C)(C)C)S(=O)(=O)O (centres undefined)
inactive: [6] 118 % of control | [7] 112 % of control | [19] 93 % of control

COc1ccc(NC(=O)Oc2ccccc2Cc2ccccc2)cc1
inactive: [16] 96 % of control | [1] 96 % of control | [17] 93 % of control | [2] 96 % of control | [18] 100 % of control | [20] 93 % of control

O=C(NC(Cc1ccc(O)cc1)C(=O)O)c1ccccc1 (centres undefined)
inactive: [8] 105 % of control | [9] 100 % of control | [10] 89 % of control | [13] 88 % of control

CC([NH-])C[NH-].[Cl][Pt+2][Cl] (centres undefined)
inactive: dose: 0.31 mg/kg/injection, schedule: Q01DX009 (ip), vehicle: saline 102 % of control | dose: 0.31 mg/kg/injection, schedule: Q04DX003 (ip), vehicle: saline 89 % of control | dose: 0.62 mg/kg/injection, schedule: Q01DX009 (ip), vehicle: saline 112 % of control | dose: 0.62 mg/kg/injection, schedule: Q04DX003 (ip), vehicle: saline 100 % of control | dose: 1.25 mg/kg/injection, schedule: Q01DX009 (ip), vehicle: saline 110 % of control | dose: 1.25 mg/kg/injection, schedule: Q04DX003 (ip), vehicle: saline 107 % of control

COc1cc(C[C@H]2c3cc(OC)c(OC)cc3CCN2C)c(Oc2cc3c(cc2OC)-c2c(OC)c(OC)cc4c2[C@H](C3)N(C)CC4)cc1OC
inactive: dose: 3.0 mg/kg/injection, schedule: Q01DX009 (ip), vehicle: saline with Tween-80 93 % of control | [3] 92 % of control and 95 % of control | [11] 88 % of control and 97 % of control and 107 % of control | dose: 75.0 mg/kg/injection, schedule: Q01DX009 (ip), vehicle: saline with Tween-80 87 % of control

C[C@H]1C[C@@H]2[C@H]([C@@H](O)C[C@@]3(C)[C@H]2CC[C@]3(O)C(=O)CO)[C@@]2(C)C=CC(=O)C=C12
inactive: dose: 6.25 mg/kg/injection, schedule: Q01DX009 (ip), vehicle: Klucel (hydroxypropylcellulose) (HPC) 115 % of control | [14] 115 % of control | [15] 117 % of control | [17] 116 % of control | [18] 112 % of control

CC(Cc1ccccc1)NN (centres undefined)
inactive: dose: 0.97 mg/kg/injection, schedule: Q01DX009 (ip), vehicle: saline 110 % of control | dose: 1.95 mg/kg/injection, schedule: Q01DX009 (ip), vehicle: saline 112 % of control | dose: 3.9 mg/kg/injection, schedule: Q01DX009 (ip), vehicle: saline 102 % of control | dose: 7.81 mg/kg/injection, schedule: Q01DX009 (ip), vehicle: saline 112 % of control

COc1cc(-c2ccc(Nc3ccccc3C(=O)O)c(OC)c2)ccc1N
inactive: [12] 105 % of control | [8] 104 % of control

From PubChem BioAssay AID192 (DTP/NCI, 2004)
